US11865126B2, “Method for treating anxiety disorders, headache disorders, and eating disorders with psilocybin” (priority 2019, dated 2024)

Assays:
healthy subjects = assay: CANTAB global composite score; type: in vivo, human; details: 10 mg vs placebo, Day 7
Protocol: The following list of outcome measures are non-exhaustive. • a. The short-term change from Baseline (Day −1 [Visit 2]) to Day 7 (Visit 5) in cognitive measures of attention, spatial and working memory and executive function was measured by a composite score of the CANTAB Panel (Spatial Working Memory [SWM], Rapid Visual Information Processing [RVP], Paired Associates Learning [PAL]). • b. The short-term change from Baseline (Day −1 [Visit 2]) to Day 7 (Visit 5) in Social Cognition Panel scales (Pictorial Empathy Test [PET], Reading the Mind in the Eyes Test [RMET], Toronto Empathy Questionnaire [TEQ], Social Value Orientation [SVO], Scale of Social Responsibility [SSR]). • c. The change from Baseline (Day −1 [Visit 2]) to Day 28 (Visit 6) in cognitive measures of attention, spatial and working memory and executive function as measured by a composite score of the CANTAB Panel (SWM, RVP, PAL). • d. […] Dose-related differences between cognitive effects of psilocybin at Baseline (Day −1 [Visit 2]), Day 7 (Visit 5) and Day 28 (Visit 6), as measured by a composite score of the CANTAB Panel (SWM, RVP, PAL). • f. Dose-related differences between psychological effects of psilocybin at Baseline (Day −1 [Visit 2]), Day 7 (Visit 5) and Day 84 (Visit 7), as measured by Social Cognition Panel scales (PET, RMET, TEQ, SVO, SSR). • g. […]

female Wistar rats = assay: Binge eating model: chow, chocolate and total food intake; details: across the whole study

In the case of `CN(C)CCc1c[nH]c2cccc(OP(=O)(O)O)c12` [psilocybin], the “CANTAB global composite score, effect size” value (healthy subjects) is reported as 0.53 and the “Food intake over the 24 hour period (normal feeding behaviour)” value (female Wistar rats) is reported as “not significantly altered”.
